According to patent publication US3982931A, “N,N-di-sec.butyl-benzamide herbicides” (priority 1967, dated 1976):

Key:
[1] = test system: avena sativa (oats); experiment: activity on agrarian species, soil treatment one day after sowing; assay type: in vivo, Avena sativa L.; details: in vivo
Text: (§1) The infesting species and the agrarian species have been indicated in Table 1 by letters, as follows:
(§2) Method of evaluation of the results (of tests):
(§3) 0 = no activity and no difference with respect to the control;
(§4) 1 slight differences with respect to the control;
(§5) 3 = considerable activity with damages that definitely impair the further development of most of the small plants; an activity degree already useful for practical purposes;
(§6) 4 = maximum of activity with lack of germination or total containment of the small plants in the emerging stage.
(§7) In the case of an intermediate activity between two classes of the scale, both values are recorded with the one which corresponds to the preeminent activity preceding.
(§8) TABLE 2 reports the activity data of other compounds that fall within the class which is the object of this invention.
(§9) TABLE 3 reports data on the herbicidal activity against infesting herbs, while TABLE 4 reports data concerning the activity on useful species of agricultural cultivations. These tables employ the criterion explained previously. The product was spread on the soil one day after sowing, in quantities of 1, 3, 6, 8, 10, 12 and 14 kg/ha.

[2] = test system: amaranthus retroflexus L.; experiment: herbicidal activity, soil treatment one day after sowing; assay type: in vivo
Text: as §1
A = amaranthus retroflexus L.
as §2, §4, §5, §6, §7, §8
(§10) TABLE 3 reports data on the herbicidal activity against infesting herbs, while TABLE 4 reports data concerning the activity on useful species of agricultural cultivations. These tables employ the criterion explained previously. […]

[3] = test system: artemisia vulgaris L.; experiment: as above; assay type: in vivo
Text: as §1
B = artemisia vulgaris L.
as §2, §4, §5, §6, §7, §8, §10

[4] = test system: oryza sativa L. (rice); experiment: activity on agrarian species, soil treatment one day after sowing; assay type: in vivo; details: in vivo
Text: as §1
P = oryza sativa L. (rice)
as §2, §3, §4, §5, §6, §7, §8, §9

[5] = test system: setaria glauca L.; experiment: herbicidal activity, soil treatment one day after sowing; assay type: in vivo
Text: as §1, §2, §4, §5, §6
In the case of an intermediate activity between two classes of the scale, both values are recorded with the one which corresponds to the preeminent activity preceding. […]
as §10

[6] = test system: echinocloa crus-galli R.S.; experiment: as above; assay type: in vivo
Text: as §1
D = echinocloa crus-galli R.S.
as §2, §4, §5, §6, §7, §8, §10

[7] = test system: phaseolus vulgaris (bean); experiment: activity on agrarian species, soil treatment one day after sowing; assay type: in vivo, Phaseolus vulgaris L.; details: in vivo
Text: as §1
I = phaseolus vulgaris (bean)
as §2, §3, §4, §5, §6, §7, §8, §9

[8] = test system: chenopodium album L.; experiment: herbicidal activity, soil treatment one day after sowing; assay type: in vivo
Text: as §1, §2, §4, §5, §6, §7, §8, §10

[9] = test system: pisum sativum L. (pea); experiment: activity on agrarian species, soil treatment one day after sowing; assay type: in vivo; details: in vivo
Text: as §1
L = pisum sativum L. (pea)
as §2, §3, §4, §5, §6, §7, §8, §10

[10] = test system: vicia sativa L.; experiment: herbicidal activity, soil treatment one day after sowing; assay type: in vivo
Text: as §1, §2, §4, §5, §6, §7, §8

[11] = test system: zea mais L. (corn); experiment: activity on agrarian species, soil treatment one day after sowing; assay type: in vivo; details: in vivo
Text: as §1, §2, §3, §4, §5, §6, §7, §8, §9

[12] = test system: triticum vulgare L. (wheat); experiment: as above; assay type: in vivo; details: in vivo
Text: as §1
N = triticum vulgare L. (wheat)
as §2, §3, §4, §5, §6, §7, §8, §9

Row | Compound | activity on G, 0-4 scale [1] | activity on A, 0-4 scale ([2]; 6 kg/ha) | activity on B, 0-4 scale ([3]; 6 kg/ha) | activity on P, 0-4 scale [4] | activity on E, 0-4 scale ([5]; 6 kg/ha) | activity on D, 0-4 scale ([6]; 4 kg/ha) | activity on D, 0-4 scale ([6]; 6 kg/ha) | activity on I, 0-4 scale [7] | activity on C, 0-4 scale ([8]; 6 kg/ha) | activity on L, 0-4 scale [9] | activity on F, 0-4 scale ([10]; 6 kg/ha) | activity on O, 0-4 scale [11] | other results
1 | CCC(C)N(C(=O)c1cccc(C)c1)C(C)CC (stereo not drawn) [PA226, 3-methyl-N,N-di-sec.butyl-benzamide] | 0 | 2 | 1-2 | 0 | 4 | 3 | 4 | 0 | 1-2 | 0 | 0 | 0 | activity on A, 0-4 scale ([2]; 4 kg/ha): 1-2; activity on B, 0-4 scale ([3]; 2 kg/ha): 1; activity on B, 0-4 scale ([3]; 4 kg/ha): 1-2; activity on E, 0-4 scale ([5]; 2 kg/ha): 2; activity on E, 0-4 scale ([5]; 4 kg/ha): 3-4; activity on D, 0-4 scale ([6]; 2 kg/ha): 2-3; activity on C, 0-4 scale ([8]; 2 kg/ha): 0-1; activity on C, 0-4 scale ([8]; 4 kg/ha): 1; activity on F, 0-4 scale ([10]; 2 kg/ha): 0; activity on F, 0-4 scale ([10]; 4 kg/ha): 0
2 | CCC(C)N(C(=O)c1ccc(Cl)cc1Cl)C(C)CC (stereo not drawn) [PA214, 2,4-dichloro-N,N-di-sec.butyl-benzamide] | 0 | 3-4 | – | 0 | 4 | 3-4 | 4 | 0 | – | 0 | 0 | 0 | activity on A, 0-4 scale ([2]; 2 kg/ha): 1; activity on A, 0-4 scale ([2]; 4 kg/ha): 2-3; activity on B, 0-4 scale ([3]; 2 kg/ha): 1; activity on B, 0-4 scale ([3]; 4 kg/ha): 2; activity on E, 0-4 scale ([5]; 2 kg/ha): 3; activity on E, 0-4 scale ([5]; 4 kg/ha): 3-4; activity on C, 0-4 scale ([8]; 2 kg/ha): 1; activity on C, 0-4 scale ([8]; 4 kg/ha): 1-2; activity on F, 0-4 scale ([10]; 2 kg/ha): 0; activity on F, 0-4 scale ([10]; 4 kg/ha): 0
3 | NC(=O)c1ccccc1Cl [C, 2,chloro-benzamide, reference compound] | – | 2 | 1 | 0-1 | 0 | – | 0-1 | – | 2 | – | 2-3 | – | activity on N, 0-4 scale [12]: 0-1
4 | CCC(C)N(C(=O)c1ccccc1Cl)C(C)CC (stereo not drawn) [PA215 2,chloro-N,N-disec.butyl-benzamide, 2-chloro-N,N-di-sec.butyl-benzamide] | 0 | 2 | 1 | 0 | 3 | – | 2-3 | 0 | 0-1 | 0 | 0 | 0 | –
5 | CCC(C)N(C(=O)c1cccc(Cl)c1Cl)C(C)CC (stereo not drawn) [PA336, 2,3-dichloro-N,N-di-sec.butyl-benzamide] | 0 | 4 | 3 | 0 | 4 | 4 | 4 | 0 | – | 0 | 0 | 0 | activity on A, 0-4 scale ([2]; 2 kg/ha): 2-3; activity on B, 0-4 scale ([3]; 2 kg/ha): 1; activity on B, 0-4 scale ([3]; 4 kg/ha): 2; activity on E, 0-4 scale ([5]; 4 kg/ha): 4; activity on D, 0-4 scale ([6]; 2 kg/ha): 3-4; activity on C, 0-4 scale ([8]; 2 kg/ha): 2; activity on C, 0-4 scale ([8]; 4 kg/ha): 3; activity on F, 0-4 scale ([10]; 2 kg/ha): 0; activity on F, 0-4 scale ([10]; 4 kg/ha): 0
6 | C=CCN(CC=C)C(=O)c1cccc(Br)c1 [PA499, 3-bromo-N,N-di-allyl-benzamide, reference compound] | – | – | 3 | – | 3 | 1 | 3 | – | 3 | – | 3 | – | activity on A, 0-4 scale ([2]; 4 kg/ha): 2-3; activity on B, 0-4 scale ([3]; 4 kg/ha): 3; activity on E, 0-4 scale ([5]; 4 kg/ha): 2; activity on C, 0-4 scale ([8]; 4 kg/ha): 2; activity on F, 0-4 scale ([10]; 4 kg/ha): 1
7 | CCCN(CCC)C(=O)c1cc(Cl)cc(Cl)c1Cl [PA303, 2,3,5-trichloro-N,N-di-n. propyl-benzamide, reference compound] | – | 3 | 1 | 3 | 4 | 3-4 | 4 | – | – | 1 | 0-1 | – | activity on A, 0-4 scale ([2]; 1 kg/ha): 1; activity on A, 0-4 scale ([2]; 4 kg/ha): 2-3; activity on B, 0-4 scale ([3]; 1 kg/ha): 1; activity on B, 0-4 scale ([3]; 2 kg/ha): 1; activity on B, 0-4 scale ([3]; 4 kg/ha): 1; activity on E, 0-4 scale ([5]; 1 kg/ha): 1-2; activity on E, 0-4 scale ([5]; 2 kg/ha): 3; activity on D, 0-4 scale ([6]; 1 kg/ha): 1-2; activity on C, 0-4 scale ([8]; 1 kg/ha): 1; activity on C, 0-4 scale ([8]; 2 kg/ha): 1; activity on C, 0-4 scale ([8]; 4 kg/ha): 1-2; activity on F, 0-4 scale ([10]; 1 kg/ha): 0; activity on F, 0-4 scale ([10]; 2 kg/ha): 0; activity on F, 0-4 scale ([10]; 4 kg/ha): 0-1
8 | CCCCN(CC)C(=O)c1ccc(Cl)c(Cl)c1 [PA325, 3,4-dichloro-N-ethyl,N-n.butyl-benzamide, reference compound] | – | 3 | 2 | – | 0-1 | – | 0-1 | – | 2 | – | 0 | – | –
9 | O=C(O)c1cccc(Br)c1 [PA577, 3,bromo-benzoic acid, reference compound] | – | 0 | 0 | – | 0 | – | 0 | – | 0 | – | 0 | – | –
10 | CCC(C)N(C(=O)c1ccc(C)c(C)c1)C(C)CC (stereo not drawn) [PA233, 3,4-dimethyl-N,N-di-sec.butyl-benzamide] | 0 | 2-3 | 2 | – | 4 | 3 | 4 | 0 | 2 | 0 | 0 | 0 | activity on E, 0-4 scale ([5]; 2 kg/ha): 3; activity on E, 0-4 scale ([5]; 4 kg/ha): 3-4; activity on D, 0-4 scale ([6]; 2 kg/ha): 2-3
11 | CCCCN(CCCC)C(=O)c1cccc(Br)c1 [PA396, 3-bromo-N,N-di-n,butyl-benzamide, reference compound] | – | 1 | 1-2 | – | 0 | – | 0-1 | – | 0-1 | – | 0 | – | –
12 | O=C(O)c1cc(Cl)cc(Cl)c1 [PA440, 3,5-dichloro-benzoic acid, reference compound] | – | 0 | 0 | – | 0 | – | 0 | – | 0 | – | 0 | – | –
13 | CC(C)CN(CC(C)C)C(=O)c1cccc(Br)c1 [PA521, 3-bromo-N,N-di-isobutyl-benzamide, reference compound] | – | 1 | 1 | – | 1-2 | – | 1-2 | – | 1 | – | 0 | – | –
14 | Cc1cccc(C(=O)O)c1 [PA442, 3,methyl-benzoic acid, reference compound] | – | 1 | 0 | – | 0 | – | 0 | – | 0 | – | 0 | – | –
15 | CCC(C)N(C(=O)c1cccc(Cl)c1)C(C)CC (stereo not drawn) [PA215, 3-chloro-N,N-di-sec.butyl-benzamide] | 0 | 1-2 | 1-2 | 0 | 3 | – | 3 | 0 | 1-2 | – | 1-2 | 0 | –
16 | CCN(CC)C(=O)c1ccc(Cl)cc1Cl [PA283, 2,4-dichloro-N,N-diethyl-benzamide, reference compound] | – | 1 | 2 | – | 1 | – | 1 | – | 1-2 | – | 1 | – | –
17 | CCN(CC)C(=O)c1cccc(C)c1 [PA383, 3,methyl-N,N-diethyl-benzamide, reference compound] | – | 2 | 3 | – | 0-1 | – | 0-1 | – | 2 | – | 2 | – | –
